From patent US5028629A, “5-Lipoxygenase inhibitors” (Eli Lilly and Company, priority 1990, dated 1991)
pIC50: −log10 of the molar value. Like-named read-outs stand apart in the source and are kept apart here.

Experiments:
5-lipoxygenase = biological target: T1, 5-lipoxygenase (Cavia porcellus, UniProt A0A286X958); assay: 5-Lipoxygenase (5-LO) Assay: 5-HETE formation in supernatant of guinea pig PMNL sonicate; type: biochemical
T1 construct: 0.2 ml of the supernatant obtained from the PMNL sonicate; endogenous in cells; host or cells: casein-elicited guinea pig peritoneal polymorphonuclear leukocytes (PMNL), sonicate, 30,000 x g supernatant
T1 sequence (A0A286X958 1-674): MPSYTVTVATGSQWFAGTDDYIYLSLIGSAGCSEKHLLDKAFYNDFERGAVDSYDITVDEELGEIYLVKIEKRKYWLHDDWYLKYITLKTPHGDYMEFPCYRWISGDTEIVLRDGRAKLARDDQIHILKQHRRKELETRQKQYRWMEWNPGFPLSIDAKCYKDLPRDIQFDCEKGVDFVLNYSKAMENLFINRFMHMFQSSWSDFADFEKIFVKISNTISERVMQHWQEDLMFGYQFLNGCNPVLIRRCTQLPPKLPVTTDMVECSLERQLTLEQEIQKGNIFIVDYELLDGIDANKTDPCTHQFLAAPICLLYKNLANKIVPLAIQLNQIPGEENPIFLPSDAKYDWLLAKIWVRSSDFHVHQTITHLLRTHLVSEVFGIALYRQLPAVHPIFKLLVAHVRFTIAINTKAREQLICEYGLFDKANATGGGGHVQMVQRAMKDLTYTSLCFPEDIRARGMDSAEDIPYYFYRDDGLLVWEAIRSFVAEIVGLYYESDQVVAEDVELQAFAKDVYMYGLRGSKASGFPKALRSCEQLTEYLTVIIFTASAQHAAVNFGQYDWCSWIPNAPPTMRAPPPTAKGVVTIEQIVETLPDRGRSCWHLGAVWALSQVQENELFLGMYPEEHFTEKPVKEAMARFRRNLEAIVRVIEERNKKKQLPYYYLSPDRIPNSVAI
Procedure: Ten milliliters of a 2% casein solution is injected intraperitoneally to guinea pigs weighing 250-300 gm. After 16-18 hours, the guinea pigs are killed by suffocation in a carbon dioxide chamber. The peritoneal cavity is infused with 70 ml of saline and 40-50 ml of the fluid is recovered from the cavity. After centrifugation, cell pellets are washed twice in Hank's balanced salt solution (HBSS) without calcium ion.
The cells are then suspended in 5 ml of sodium phosphate buffer, pH 7.1 containing 1 mM, ethylene diamine tetraacetic acid (EDTA), and 0.1% gelatin. About 20-30×10^7 cells are obtained from one guinea pig.
The PMNL suspension is disrupted by five 1/2-second pulse sonication at the setting of 3 in a Branson Sonifier, Model 350, equipped with a microtip. The sonicates are combined and centrifuged at 30,000 ×g for 10 minutes. The supernatant is kept frozen at -70° C. until use.
Enzyme activity is determined by assaying for 5-hydroxy-6,8,11,14-eicosatetraenoic acid (5-HETE) formation by first incubating 0.2 ml of the supernatant obtained from the PMNL sonicate with the test compound, 1 mM CaCl2, 2 mM ATP, and 1 mM GSH for 5 minutes at 37° C. The mixture is treated with […] ^14 C-arachidonic acid and incubated at 37° C. an additional 10 minutes. The enzyme reaction is then stopped by the addition of 10 μl of 1M citric acid and 10 μl of an alcohol solution containing 20 mg/ml each of indomethacin and butylated hydroxyanisole (BHA). The reaction mixture is spotted (50 μl) on a silica gel plate (Baker TLC plate S1250-PA-19C) and subjected to TLC in a solvent system of ethyl acetate/2,2,4-trimethylpentane/glacialacetic acid/H2 O (90:50:20:100).
The radioactivity of the arachidonic acid and its metabolites (5-HETE and LTB4) is visualized from a developed x-ray film which had been exposed to the TLC plate 1-2 days. The amount of 5-HETE formed is quantitated by scraping the silica gel area corresponding to the spot on the x-ray film, and the radioactivity determined in a Isocap/300 liquid scintillation counter (Searle Analytic, Inc.).
The percent inhibition of the formation of 5-HETE is determined for each concentration of compound tested as compared to a control experiment wherein no test compound is added. The concentration and percent values are plotted on semi log paper and the concentration in which formation of 5-HETE is inhibited by 50% (IC50) is determined by interpolation.

[1] = test system: polymorphonuclear leukocytes (PMNs); assay: H-PMN Assay: LTB4 content of supernatant of A23187-stimulated human PMNs by radioimmunoassay; type: cell-based; settings: Table II, human PMNs, calcium ionophore A23187, 37° C. for 10 minutes, LTB4 by radioimmunoassay
Procedure: Sodium citrated venous blood is drawn from normal human subjects. After centrifugation at 300 ×g for 15 minutes, the platelet-rich layer of plasma is discarded and an equal volume of Hanks' balanced salt solution (HBSS) is added to the enriched cell fraction. This platelet-depleted cell suspension is then layered on an equal volume of Ficoll-Paque. After centrifugation for 40 minutes at 300 ×g, the bottom layer containing erythrocytes and polymorphonuclear leukocytes (PMNs) is diluted with two volumes of a 0.2% methocel solution. The erythrocytes are sedimented upon standing for 15 minutes, and the supernatant containing the PMNs is aspirated and centrifuged at 300 ×g, for 5 minutes. The cell pellet is then exposed to 0.2% NaCl for 30 seconds to lyse any remaining erythrocytes, and the ionic strength of the suspension is readjusted to 0.9% with NaCl. The PMNs are recovered by centrifugation at 300 ×g for 5 minutes and are suspended in HBSS to a concentration of 2 ×10^6 cells/ml.
The test compounds are dissolved in and diluted with dimethylsulfoxide (DMSO) which also contains 2×10^-6 M of the calcium ionophore, A23187. To 1 ml of the PMN suspension, 10 μl of the DMSO solution is added, and the mixture is incubated at 37° C. for 10 minutes. The PMNs are rapidly pelleted in a microcentrifuge, and the supernatant is kept at -20° C. for future determination of LTB4 content via the radioimmunoassay.

[2] = Table II, guinea pig PMNL sonicate supernatant, 14C-arachidonic acid, 37° C., read-out: 5-LO (concentration in which formation of 5-HETE is inhibited by 50%, IC50)
[3] = second table (Table III), known hydroxamic acid derivatives as comparison, read-out: 5-Lo (IC50)

Compound | pIC50 (5-lipoxygenase; [2]) | pIC50 ([1]; Leukocyte, 10 min) | other results
2-methylsulfonyl-4-n-hexyl-N-hydroxy-N-methylcinnamamide [Example 22] | 6.83 |  | pIC50 [1]: 6.69
C=CCCSc1ccccc1C=CC(=O)N(C)O [Example 2] | 7.36 | 7.92 | 
CCCCc1ccccc1C=CC(=O)N(C)O [Example 4, 2-n-butyl-N-hydroxy-N-methylcinnamamide] | 7.14 | 7.12 | 
CCCCCCc1ccc(S(C)(=O)=O)c(C=CC(=O)N(C)O)c1 [Example 9, 2-methylsulfonyl-5-n-hexyl-N-hydroxy-N-methylcinnamamide] | 7.05 | 6.59 | 
CCCCCCc1ccc(C=CC(=O)N(C)O)c([S+](C)[O-])c1 (stereo not shown) [Example 10, 2-methylsulfinyl-4-n-hexyl-N-hydroxy-N-methylcinnamamide] | 7.01 | 6.93 | 
CCCCCCc1ccc([S+](C)[O-])c(C=CC(=O)N(C)O)c1 (stereo not shown) [Example 11, 2-methylsulfinyl-5-n-hexyl-N-hydroxy-N-methylcinnamamide] | 7.02 | 7.15 | 
CN(O)C(=O)C=Cc1ccc(S(C)(=O)=O)cc1Cc1ccccc1 [Example 12, 2-benzyl-4-methylsulfonyl-N-hydroxy-N-methylcinnamamide] | 6.16 |  | 
CN(O)C(=O)C=Cc1ccccc1Cc1ccc(S(C)(=O)=O)cc1 [Example 15, 2-(4-methylsulfonylbenzyl)-N-hydroxy-N-methylcinnamamide] | 6.31 |  | 
CN(O)C(=O)C=Cc1ccc(CCCc2ccccc2)cc1S(C)(=O)=O [Example 16, 2-methylsulfonyl-4-(3-phenylpropyl)-N-hydroxy-N-methylcinnamamide] | 7.13 |  | 
CCCCCCc1cccc(C=CC(=O)N(C)O)c1SC [Example 17, 2-(methylthio)-3-n-hexyl-N-hydroxy-N-methylcinnamamide] | 7.23 | 6.82 | 
CN(O)C(=O)C=Cc1ccccc1SC(C)(C)C [Example 18, 2-tert-butylthio-N-hydroxy-N-methyl-cinnamamide] | 6.76 |  | 
CCCCCCc1ccc(C=CC(=O)N(C)O)c(SC)c1 [Example 19, 2-methylthio-4-n-hexyl-N-hydroxy-N-methylcinnamamide] | 7.09 | 7.60 | 
CCCCCCc1cccc(C=CC(=O)N(C)O)c1[S+](C)[O-] (stereo not shown) [Example 20, 2-methylsulfinyl-3-n-hexyl-N-hydroxy-N-methylcinnamamide] | 6.34 | 6.72 | 
CCCCCCc1cccc(C=CC(=O)N(C)O)c1S(C)(=O)=O [Example 21, 2-methylsulfonyl-3-n-hexyl-N-hydroxy-N-methylcinnamamide] | 6.78 | 6.34 | 
CN(O)C(=O)C=Cc1ccccc1-c1ccccc1 [Example 24, 2-phenyl-N-hydroxy-N-methylcinnamamide] | 6.88 |  | 
CN(O)C(=O)C=Cc1ccc(CCCc2ccccc2)cc1[S+](C)[O-] (stereo not shown) [Example 32, 2-methylsulfinyl-4-(3-phenylpropyl)-N-hydroxy-N-methylcinnamamide] | 5.08 |  | 
CCCCS(=O)(=O)c1ccccc1C=CC(=O)N(C)O [Example 34, 2-n-butylsulfonyl-N-hydroxy-N-methylcinnamamide] | 5.96 |  | 
CCCC[S+]([O-])c1ccccc1C=CC(=O)N(C)O (stereo not shown) [Example 36, 2-n-butylsulfinyl-N-hydroxy-N-methylcinnamamide] | 5.61 |  | 
CN(O)C(=O)C=Cc1ccccc1SCCCCCCc1ccccc1 [Example 39, 2-[10(6-phenylhexyl)thio]-N-hydroxy-N-methylcinnamamide] | 7.48 |  | 
CN(O)C(=O)C=Cc1cc(CCCc2ccccc2)ccc1[S+](C)[O-] (stereo not shown) [Example 41, 2-methylsulfinyl-5-(3-phenylpropyl)-N-hydroxy-N-methylcinnamamide] | 6.80 |  | 
CN(O)C(=O)C=Cc1cc(CCCc2ccccc2)ccc1S(C)(=O)=O [Example 42, 2-methylsulfonyl-5-(3-phenylpropyl)-N-hydroxy-N-methylcinnamamide] | 6.52 |  | 
CSc1ccccc1C(=O)N(C)O [reference compound] |  |  | pIC50 (5-lipoxygenase; [3]): 4.36
CSc1ccc(CCCc2ccccc2)cc1C(=O)N(C)O [reference compound] |  |  | pIC50 (5-lipoxygenase; [3]): 6.23
CCc1ccc(CCCc2ccccc2)cc1C(=O)N(C)O [reference compound] |  |  | pIC50 (5-lipoxygenase; [3]): 6.26

Continued, in another order:

pIC50 (5-lipoxygenase; [2]) | pIC50 ([1]; Leukocyte, 10 min) | Compound | other results
7.77 | 8.05 | CCCCCCSc1ccccc1C=CC(=O)N(C)O [Example 3, 2-n-hexylthio-N-hydroxy-N-methylcinnamamide] | 
7.49 | 7.62 | CN(O)C(=O)C=Cc1ccccc1SCCCC(F)(F)F [Example 5, 2-[1-(3-trifluoromethylpropyl)thio]-N-hydroxy-N-methylcinnamamide] | 
8.15 |  | CSc1cc(CCCc2ccccc2)ccc1C=CC(=O)N(C)O [Example 6, 2-methylthio-4-(3-phenylpropyl)-N-hydroxy-N-methylcinnamamide] | 
7.62 |  | CCCCSc1cc(C(F)(F)F)ccc1C=CC(=O)N(C)O [Example 7, 2-n-butylthio-4-trifluoromethyl-N-hydroxy-N-methylcinnamamide] | 
7.64 |  | CCCCc1cc(SC)ccc1C=CC(=O)N(C)O [Example 8, 2-n-butyl-4-methylthio-N-hydroxy-N-methylcinnamamide] | 
7.64 |  | CSc1ccc(C=CC(=O)N(C)O)c(Cc2ccccc2)c1 [Example 13, 2-benzyl-4-methylthio-N-hydroxy-N-methylcinnamamide] | 
7.51 |  | CSc1ccc(Cc2ccccc2C=CC(=O)N(C)O)cc1 [Example 14, 2-(4-methylthiobenzyl)-N-hydroxy-N-methylcinnamamide] | 
7.85 |  | CN(O)C(=O)C=Cc1ccccc1SCCc1ccccc1 [Example 25, 2-[1-(2-phenylethyl)thio]-N-hydroxy-N-methyl-cinnamamide] | 
7.85 |  | CN(O)C(=O)C=Cc1ccccc1SCC1CCCCC1 [Example 26, 2-cyclohexylmethylthio-N-hydroxy-N-methylcinnamamide] | 
8.10 |  | CCCCSc1ccccc1C=CC(=O)N(O)C(C)C [Example 28, 2-n-butylthio-N-hydroxy-N-isopropylcinnamamide] | 
